This is an account of results in US20240228504A1, “SUBSTITUTED TRICYCLIC AMIDES, ANALOGUES THEREOF, AND METHODS USING SAME” (Arbutus Biopharma Corporation, priority 2020, published 2024).

In one test the test system is HBV rcDNA in HepDE19 cells. In words: HepDE19 assay with bDNA quantitation of HBV rcDNA. Type of test: cell-based, hepatitis B virus. The following applies: HepDE19 assay, inhibition of rcDNA formation, bDNA quantitation; read-out: DE-19bDNA EC50.
As usually defined, the EC50 is the concentration needed to bring the measured effect to its halfway point. With `CN(C(=O)c1cc2ccccc2[nH]1)C1COCc2[nH]c(=O)c3cc(F)ccc3c21` (single isomer, unassigned) [Compound 1, N-(8-Fluoro-6-oxo-1,4,5,6-tetrahydro-2H-pyrano[3,4-c]isoquinolin-1-yl)-N-methyl-1H-indole-2-carboxamide], the EC50 came out at 8600 nM. The same measure, in the same setting: in the case of `CN(C(=O)c1cc2ccccc2[nH]1)C1COCc2[nH]c(=O)c3cc(F)ccc3c21` (single isomer, unassigned) [Compound 2, N-(8-Fluoro-6-oxo-1,4,5,6-tetrahydro-2H-pyrano[3,4-c]isoquinolin-1-yl)-N-methyl-1H-indole-2-carboxamide] it was 20 nM; in that of `CN(C(=O)C1Cc2cc(F)ccc2N1)C1COCc2[nH]c(=O)c3cc(F)c(F)cc3c21` (single isomer, unassigned) [Compound 5, N-(8,9-Difluoro-6-oxo-1,4,5,6-tetrahydro-2H-pyrano[3,4-c]isoquinolin-1-yl)-5-fluoro-N-methylindoline-2-carboxamide], 20 nM; in that of `CN(C(=O)C1Cc2cc(F)ccc2N1)C1COCc2[nH]c(=O)c3cc(F)c(F)cc3c21` (single isomer, unassigned) [Compound 6, N-(8,9-Difluoro-6-oxo-1,4,5,6-tetrahydro-2H-pyrano[3,4-c]isoquinolin-1-yl)-5-fluoro-N-methylindoline-2-carboxamide], 9600 nM. On the same count and under the same terms, the figure for `CN(C(=O)C1Cc2cc(F)ccc2N1)C1COCc2[nH]c(=O)c3cc(F)c(F)cc3c21` (single isomer, unassigned) [Compound 7, N-(8,9-Difluoro-6-oxo-1,4,5,6-tetrahydro-2H-pyrano[3,4-c]isoquinolin-1-yl)-5-fluoro-N-methylindoline-2-carboxamide] is 10 nM; for `CN(C(=O)C1Cc2cc(F)ccc2N1)C1COCc2[nH]c(=O)c3cc(F)c(F)cc3c21` (single isomer, unassigned) [Compound 8, N-(8,9-Difluoro-6-oxo-1,4,5,6-tetrahydro-2H-pyrano[3,4-c]isoquinolin-1-yl)-5-fluoro-N-methylindoline-2-carboxamide] it is 1400 nM.

Staying with this test, now noted: Hepatitis B virus, HepDE19, HepDE19 assay, inhibition of rcDNA formation, bDNA quantitation; read-out: DE-19bDNA EC50.
With `CN(C(=O)c1ccc(C(F)(F)F)c(F)c1)C1COCc2[nH]c(=O)c3ccccc3c21` (racemic) [Compound 132, 3-Fluoro-N-methyl-N-(6-oxo-1,4,5,6-tetrahydro-2H-pyrano[3,4-c]isoquinolin-1-yl)-4-(trifluoromethyl)benzamide], the EC50 was 60 nM. Same read-out and setting: in the case of `CN(C(=O)c1ccc(C(F)(F)F)c(F)c1)C1COCc2[nH]c(=O)c3cscc3c21` (racemic) [Compound 133, 3-Fluoro-N-methyl-N-(4-oxo-4,5,8,9-tetrahydro-6H-pyrano[3,4-b]thieno[3,4-d]pyridin-9-yl)-4-(trifluoromethyl)benzamide] it was 60 nM; in that of `CN(C(=O)c1ccc(C(F)(F)F)c(F)c1)C1COCc2[nH]c(=O)c3cc(C#N)ccc3c21` (racemic) [Compound 134, N-(8-Cyano-6-oxo-1,4,5,6-tetrahydro-2H-pyrano[3,4-c]isoquinolin-1-yl)-3-fluoro-N-methyl-4-(trifluoromethyl)benzamide], 2800 nM. Same read-out and setting: the figure for `CN(C(=O)c1cc2sc(Cl)cc2[nH]1)C1COCc2[nH]c(=O)c3cc(F)ccc3c21` (racemic) [Compound 452, 2-Chloro-N-(8-fluoro-6-oxo-1,4,5,6-tetrahydro-2H-pyrano[3,4-c]isoquinolin-1-yl)-N-methyl-4H-thieno[3,2-b]pyrrole-5-carboxamide] is 80 nM; for `Cc1cc(F)cc2[nH]c(C(=O)N(C)C3COCc4[nH]c(=O)c5cc(F)ccc5c43)cc12` (racemic) [Compound 455, 6-Fluoro-N-(8-fluoro-6-oxo-1,4,5,6-tetrahydro-2H-pyrano[3,4-c]isoquinolin-1-yl)-N,4-dimethyl-1H-indole-2-carboxamide] it is 20 nM; for `CN(C(=O)[C@@H]1Cc2ccccc2N1)C1COCc2[nH]c(=O)c3cc(F)ccc3c21` (single isomer, unassigned) [Compound 4] it is 130 nM.
